A short description of data set [1]: Cytotoxicity in HepG2 hepatocytes. The settings on record: human, HepG2 cells. Format: cell-based.
Data set [2] has as its target T1, ATX (Homo sapiens, UniProt Q13822).
T1 construct: purchased Sino Biological 11308-H07H
Kind of data set: Amplex Red assay: ATX inhibitory activity in vitro. In kind it is biochemical. Conditions: for IC50: Amplex Red assay; for IC50 / Inhibition of ATX enzymatic activity: in vitro; for % inhibition of ATX: at 100 μΜ, Table S1; for ATX activity, fold lower than that of TGZ: ratio of IC50. How it is done:
(§1) ATX inhibitory activity in vitro of examined compounds was assessed with the Amplex Red assay,[32]^,[35]^,[36] as recently published in detail.[37] The assay was done in Amplex Red Assay buffer (Tris 50 mM, CaCl2 5 mM, pH 8). Briefly, 50 μL of increasing concentrations of each compound were placed in separate wells of a black 96-well plate. […] 50 μL of the LPC-containing assay buffer (200 μM) were added to the wells and incubated for 30 min at 37°C to allow the enzyme to initially interact with its substrate. 50 μL of the detection mix (Amplex Red 200 μM, choline oxidase 0.4 U/mL, horseradish peroxidase 4 U/mL) were added to the plate wells. Fluorescence was measured in a Tecan M200 Fluorimeter using excitation at 530 nm and reading at 590 nm, every 5 min for 30 min. The velocity of the reaction and the remaining ATX activity were calculated at the linear phase of the reaction. Dose-response inhibition graphs were plotted with GraphPad Software.

Data set [3] concerns the target T1, ATX. Kind of data set: Mode of ATX inhibition, Lineweaver-Burk plots (various LPC concentrations). Format: biochemical. How it is done:
To determine the mode of inhibition of ATX, various concentrations of TGZ, compound 5 and EL244 were tested against various LPC concentrations. Specifically, TGZ was tested against 6.25, 12.5, 25, 50 and 100 μM LPC, compound 5 was tested against 3.125, 6.25, 12.5, 25, 50 and 100 μM LPC, while EL244 was tested against 25, 50, 100 and 150 μM LPC. Lineweaver–Burk graphs depicting the reciprocal of velocity (1/V) against the reciprocal of substrate concentration (1/S) were plotted with GraphPad Software.

The target of another data set is T2, PPARγ (Homo sapiens, UniProt P37231).
T2 construct: expressed in transfected cells; host or cells: HEK293T
T2 sequence (P37231 238-503 limits assumed): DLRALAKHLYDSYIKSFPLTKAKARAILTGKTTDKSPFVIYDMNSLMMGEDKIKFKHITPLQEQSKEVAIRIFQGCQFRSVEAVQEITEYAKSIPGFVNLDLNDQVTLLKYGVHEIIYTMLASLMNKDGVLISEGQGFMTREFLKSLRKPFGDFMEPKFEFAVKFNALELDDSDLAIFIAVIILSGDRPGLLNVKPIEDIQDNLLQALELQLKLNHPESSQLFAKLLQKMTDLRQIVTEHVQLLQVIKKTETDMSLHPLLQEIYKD
Kind of data set: PPARγ Gal4 hybrid reporter gene assay. Format: cell-based. Conditions: Gal4-hybrid reporter, HEK293T cells. How it is done: All well-established assays were performed following straightforward methodology.[49] Plasmids pFA-CMV-hPPARα-LBD, pFA-CMV-hPPARγ-LBD and pFA-CMV-hPPARδ-LBD code for the hinge region and ligand binding domain of the canonical isoform of the respective nuclear receptor and were used to express the Gal4 hybrid receptors. pFR-Luc (Stratagene, La Jolla, CA, USA) and pRL-SV40 (Promega, Madison, WI, USA) were used as Gal4-responsive reporter and as internal control in the hybrid reporter gene assays, respectively. HEK293T cells were seeded in 96-well plates (3×10^4 cells/well). Before transfection, the medium was changed to Opti-MEM without supplements, and transient transfection with the plasmids pFR-Luc, pRL-SV40, and one pFA-CMV-NR-LBD clone was carried out using Lipofectamine LTX reagent (Invitrogen, Carlsbad, CA, USA) according to the manufacturer’s protocol. […] Normalisation of transfection efficiency and cell growth was performed by dividing firefly luminescence by Renilla luminescence and multiplying the result by 1000, yielding relative light units (RLU). Fold activation was obtained by dividing the mean RLU of the test compound by the mean RLU of the untreated control.

The subject of data set [4] is choline oxidase and horseradish peroxidase. Kind of data set: Interference with the 2nd and 3rd reaction of the Amplex Red assay. In kind it is biochemical. How it is done:
as §1
Figure S3. Kinetic analysis of ATX inhibition. Related to Figures 3 and 4
(B) Kinetics for the second (oxidation of choline catalysed by choline oxidase) and third reaction (the conversion of the
Amplex substrate to the fluorescent resorufin catalysed by horseradish peroxidase, HRP) of the Amplex Red Lyso-
phospholipase D assay for representative compounds (TGZ, 4, 5 and EL244). The first reaction includes the conversion of
LPC to LPA catalysed by ATX.
Kinetic graphs are indicative of three technical replicates. […]

The target of the next data set is hERG (Homo sapiens, UniProt Q12809). Kind of data set: hERG inhibition. Format: biochemical.
Sequence of hERG (Q12809 whole entry): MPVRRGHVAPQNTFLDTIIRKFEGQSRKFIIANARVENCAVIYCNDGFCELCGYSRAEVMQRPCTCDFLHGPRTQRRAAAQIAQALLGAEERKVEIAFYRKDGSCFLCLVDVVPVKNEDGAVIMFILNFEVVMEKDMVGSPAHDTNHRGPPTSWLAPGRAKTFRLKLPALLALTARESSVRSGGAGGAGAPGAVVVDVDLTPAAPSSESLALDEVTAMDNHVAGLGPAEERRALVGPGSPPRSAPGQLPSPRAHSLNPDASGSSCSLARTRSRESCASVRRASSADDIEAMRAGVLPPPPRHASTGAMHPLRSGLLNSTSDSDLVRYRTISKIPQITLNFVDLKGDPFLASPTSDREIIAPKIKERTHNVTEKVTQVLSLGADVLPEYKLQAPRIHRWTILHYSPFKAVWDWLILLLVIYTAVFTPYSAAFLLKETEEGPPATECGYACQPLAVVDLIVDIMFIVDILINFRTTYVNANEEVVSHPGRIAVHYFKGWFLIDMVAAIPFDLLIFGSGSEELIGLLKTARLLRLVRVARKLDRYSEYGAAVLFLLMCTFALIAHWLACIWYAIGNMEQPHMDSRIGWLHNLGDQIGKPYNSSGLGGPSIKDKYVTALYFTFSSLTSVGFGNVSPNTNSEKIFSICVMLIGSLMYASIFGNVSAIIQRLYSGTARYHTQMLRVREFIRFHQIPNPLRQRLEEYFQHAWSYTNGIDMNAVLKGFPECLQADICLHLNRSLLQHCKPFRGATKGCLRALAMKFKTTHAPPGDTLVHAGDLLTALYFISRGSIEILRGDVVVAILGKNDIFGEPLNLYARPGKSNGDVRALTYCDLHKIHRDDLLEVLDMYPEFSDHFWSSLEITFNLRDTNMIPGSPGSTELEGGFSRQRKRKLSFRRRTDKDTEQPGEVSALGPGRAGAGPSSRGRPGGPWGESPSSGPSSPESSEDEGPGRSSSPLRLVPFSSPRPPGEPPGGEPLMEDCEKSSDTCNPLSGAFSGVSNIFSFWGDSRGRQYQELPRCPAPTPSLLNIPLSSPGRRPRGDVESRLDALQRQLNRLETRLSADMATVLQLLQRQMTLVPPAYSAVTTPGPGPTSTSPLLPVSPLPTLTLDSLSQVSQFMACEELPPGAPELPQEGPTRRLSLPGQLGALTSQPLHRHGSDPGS
Data set [5] can be described thus: Mouse metabolic clearance and half-life in vitro.
A further data set is described as follows: in vitro. The settings on record: mouse.
Data set [6] is described as follows: AMP membrane permeability. In kind it is in vitro ADME. Conditions: 10 μΜ.

These results are taken from paper PMC13198257, “An aerosolized dual-action autotaxin inhibitor-PPARγ agonist for the treatment of pulmonary fibrosis” (Cell Reports Medicine, 2026).

“Also recorded” adds a separate entry of the source.

In [1], `Cc1c(C)c2c(c(C)c1O)CCC(C)(COc1ccc(CC3SC(=O)NC3=O)cc1)O2` (stereo not drawn) [TGZ, troglitazone, reference compound] registered a CC50 of 34000 nM. Also, on ATX [2], it took 530 nM to reach half-maximal inhibition (IC50) and the “% inhibition of ATX” value was “fully inhibited ATX activity”. Also, at ATX [2] (listed as 1467), the “% inhibition of ATX” value was 99.17%. Further, the “Mode of ATX inhibition” value at ATX [3] is reported as “non-competitive”.
On to `CCc1ccc(CCOc2ccc(CC3SC(=O)NC3=O)cc2)nc1` (stereo not drawn) [PGZ, pioglitazone, reference compound], for which, on ATX [2], the concentration for half-maximal inhibition (IC50) is greater than 100000 nM and the “Inhibition of ATX enzymatic activity” value is “not to inhibit ATX enzymatic activity”.
In the case of `N#Cc1sc(NCCOc2ccc(CC3SC(=O)NC3=O)cc2)nc1-c1ccc(F)cc1` (stereo not drawn) [Compound 4, 2-((2-(4-((2,4-dioxothiazolidin-5-yl)methyl)phenoxy)ethyl)amino)-4-(4-fluorophenyl)thiazole-5-carbonitrile], at PPARγ, the midpoint of the response, the EC50, lay at 1000 nM and the “PPARγ fold activ. (max. activation)” value came to 5.6 ± 0.5 fold. For the same compound, in [4], the “Interference on the 2nd and 3rd steps of the Amplex Red assay” value was “Minimal interference; also recorded: not involved at all in the second and third reaction”. Moreover, the IC50 against ATX [2] amounted to 940 nM.
For the compound `COc1cc(-c2ccc(N=Nc3ccc4c(S(=O)(=O)O)cc(S(=O)(=O)O)c(N)c4c3O)c(OC)c2)ccc1N=Nc1ccc2c(S(=O)(=O)O)cc(S(=O)(=O)O)c(N)c2c1O` [CSB, Chicago Sky Blue 6B, reference compound], on ATX [2], the midpoint of inhibition, the IC50, lay at 1600 nM and the “% inhibition of ATX” value is “fully inhibited ATX activity”. Moreover, at ATX [2] (listed as 425), the “% inhibition of ATX” value was determined as 99.21%.
As for `CN(CCOc1ccc(CC2SC(=O)NC2=O)cc1)c1ccccn1` (stereo not drawn) [RGZ, rosiglitazone, reference compound], at ATX [2], the half-inhibitory concentration (IC50) was greater than 100000 nM and the “Inhibition of ATX enzymatic activity” value is “not to inhibit ATX enzymatic activity”.
Compound `O=C(CCN1CCN(C(=O)OCc2cc(Cl)cc(Cl)c2)CC1)c1ccc2[nH]c(=O)oc2c1` [PF-8380, reference compound] gave a CC50 in data set [1] greater than 100000 nM. The IC50 on hERG came out at 500 nM. Moreover, in [5], the half-life at 0.1 μM is less than 10 min and the microsomal CLint at 0.1 μM is 766 µL/min/mg.
On to `O=C1NC(=O)/C(=C\c2ccc(OCCN3CCN(C(=O)OCc4cc(Cl)cc(Cl)c4)CC3)cc2)S1` [Compound 2, 3,5-Dichlorobenzyl (E)-4-(2-(4-((2,4-dioxothiazolidin-5-ylidene)methyl)phenoxy)ethyl)piperazine-1-carboxylate], for which, at ATX [2], half-maximal inhibition (IC50) required 2000 nM and the “ATX activity, fold lower than that of TGZ” value was 4 fold.
For `Cc1c(C)c2c(c(C)c1O)CCC(C)(COc1ccc(/C=C3/SC(=O)N(Cc4ccc(F)cc4)C3=O)cc1)O2` (stereo not drawn) [Compound 3, (E)-3-(4-fluorobenzyl)-5-(4-((6-hydroxy-2,5,7,8-tetramethylchroman-2-yl)methoxy)benzylidene)thiazolidine-2,4-dione], the IC50 against ATX [2] came to 17800 nM.
Regarding `COC(=O)c1ccc2c(c1)NC(=O)/C2=C(\Nc1ccc(N(C)C(=O)CN2CCN(C)CC2)cc1)c1ccccc1` [Nintedanib, reference compound], the CC50 in data set [1] is 4000 nM. The same compound came in with a half-life at 0.1 μM in the data set “in vitro” of 58 min. In addition, the 50% inhibitory concentration (IC50) against hERG was determined as 4000 nM. Moreover, the AMP in [6] turned out to be 7.8e-07 cm/s. Further, the intrinsic metabolic clearance (microsomal CLint) at 0.1 μM in data set [5] was found to be 122 µL/min/mg.
As to `N#Cc1sc(NCCOc2ccc(/C=C3/SC(=O)NC3=O)cc2)nc1-c1ccc(F)cc1` [Compound 1, (E)-2-((2-(4-((2,4-dioxothiazolidin-5-ylidene)methyl)phenoxy)ethyl)amino)-4-(4-fluorophenyl)thiazole-5-carbonitrile], at ATX [2], it took 2000 nM to reach half-maximal inhibition (IC50) and the “ATX activity, fold lower than that of TGZ” value was found to be 4 fold.
